Article PMC12814364 (Journal of the American Chemical Society, 2025)
Read-outs that look alike come from different tables or passages of the source.

Columns and labels:
HBHA110–199 [1] = target: T1, HBHA110–199 (Mycobacterium tuberculosis, UniProt P9WIP9); assay: ITC binding of HS hexadecasaccharides with HBHA110–199
full-length HBHA = target: T2, full-length HBHA (Mycobacterium tuberculosis, UniProt P9WIP9); assay: Far-UV circular dichroism of full-length HBHA with added sugar
T2 sequence (P9WIP9 1-199): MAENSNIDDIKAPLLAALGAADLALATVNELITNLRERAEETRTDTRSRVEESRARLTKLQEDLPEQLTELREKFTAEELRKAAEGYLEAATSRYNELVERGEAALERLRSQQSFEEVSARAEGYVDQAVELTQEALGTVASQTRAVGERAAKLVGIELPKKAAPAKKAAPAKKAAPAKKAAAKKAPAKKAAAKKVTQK

HBHA110–199 [2] = target: T1, HBHA110–199; format: binding
HBHA110–199 [3] = target: T1, HBHA110–199; assay: Circular dichroism of HBHA110–199 with added sugar; details: data not shown

For O=C(O)[C@@H]1O[C@@H](O[C@H]2[C@H](O)[C@@H](NS(=O)(=O)O)[C@@H](O[C@H]3[C@H](O)[C@@H](OS(=O)(=O)O)[C@H]4OC[C@@H]3O4)O[C@@H]2COS(=O)(=O)O)[C@H](OS(=O)(=O)O)[C@@H](O)[C@@H]1O[C@H]1O[C@H](COS(=O)(=O)O)[C@@H](O[C@@H]2O[C@@H](C(=O)O)[C@@H](O[C@H]3O[C@H](COS(=O)(=O)O)[C@@H](O[C@@H]4O[C@@H](C(=O)O)[C@@H](O[C@H]5O[C@H](COS(=O)(=O)O)[C@@H](O[C@@H]6O[C@@H](C(=O)O)[C@@H](O[C@H]7O[C@H](COS(=O)(=O)O)[C@@H](O[C@@H]8O[C@@H](C(=O)O)[C@@H](O[C@H]9O[C@H](COS(=O)(=O)O)[C@@H](O[C@@H]%10O[C@@H](C(=O)O)[C@@H](O[C@H]%11O[C@H](COS(=O)(=O)O)[C@@H](O[C@@H]%12O[C@@H](C(=O)O)[C@@H](O[C@H]%13O[C@H](COS(=O)(=O)O)[C@@H](O)[C@H](O)[C@H]%13NS(=O)(=O)O)[C@H](O)[C@H]%12OS(=O)(=O)O)[C@H](O)[C@H]%11NS(=O)(=O)O)[C@H](O)[C@H]%10OS(=O)(=O)O)[C@H](O)[C@H]9NS(=O)(=O)O)[C@H](O)[C@H]8OS(=O)(=O)O)[C@H](O)[C@H]7NS(=O)(=O)O)[C@H](O)[C@H]6OS(=O)(=O)O)[C@H](O)[C@H]5NS(=O)(=O)O)[C@H](O)[C@H]4OS(=O)(=O)O)[C@H](O)[C@H]3NS(=O)(=O)O)[C@H](O)[C@H]2OS(=O)(=O)O)[C@H](O)[C@H]1NS(=O)(=O)O [compound 24], the “n (sugar-to-protein binding ratio)” value (HBHA110–199 [1]; 25 °C, Tris buffer pH 7.6) was 0.27 ± 0.01, the ΔG (HBHA110–199 [1]; 25 °C, Tris buffer pH 7.6) was “–7.82 ± 0.02 kcal/mol” and the ΔH (HBHA110–199 [1]; 25 °C, Tris buffer pH 7.6) was 16.00 ± 0.00 kcal/mol. For the same compound, the “–TΔS” value (HBHA110–199 [1]; 25 °C, Tris buffer pH 7.6) was “–23.85 ± 0.08 kcal/mol”, the Kd (HBHA110–199 [1]; Tris buffer pH 7.6, 25 °C, two trials, average ± standard deviation, read-out: dissociation constant, KD) was 1.87 ± 0.06 µM and the “random coil of full-length HBHA” value (full-length HBHA; HBHA:compound 1:0.5) was 52.4%. The “β-sheet of full-length HBHA” value (full-length HBHA; HBHA:compound 1:0.5) was 24.0%, the “α-helix of full-length HBHA” value (full-length HBHA; HBHA:compound 1:0.5, far-UV CD 195–260 nm) was 23.6% and the “random coil of full-length HBHA” value (full-length HBHA; HBHA:compound 1:1) was 51.9%. For the same compound, the “α-helix of full-length HBHA” value (full-length HBHA; HBHA:compound 1:1) was 24.9%, the “β-sheet of full-length HBHA” value (full-length HBHA; HBHA:compound 1:1) was 23.2% and the “random coil of full-length HBHA” value (full-length HBHA; HBHA:compound 1:1.5) was 52.2%. The “α-helix of full-length HBHA” value (full-length HBHA; HBHA:compound 1:1.5) was 24.4%, the “β-sheet of full-length HBHA” value (full-length HBHA; HBHA:compound 1:1.5) was 23.4% and the “increase in α-helical content of bound HBHA” value (full-length HBHA; estimated by Dichroweb, roughly 16 residues) was “approximately 8%”. For the same compound, the Kd (HBHA110–199 [2]; Average of Repeat I P(KKAA), residue 160-164, read-out: Dissociation constant from NMR cross-peak movement, average) was 8.7 µM, the Kd (HBHA110–199 [2]; Average of Repeat II P(AKKAA), residue 165-170, read-out: Dissociation constant from NMR cross-peak movement, average) was 3.2 µM and the Kd (HBHA110–199 [2]; Average of Repeat III P(AKKAA), residue 171-176, read-out: Dissociation constant from NMR cross-peak movement, average) was 2.9 µM. For the same compound, the Kd (HBHA110–199 [2]; Average of Repeat IV P([…]), residue 177-186, read-out: Dissociation constant from NMR cross-peak movement, average) was 1.4 µM, the Kd (HBHA110–199 [2]; Average of Repeat V P([…]), residue 187-196, read-out: Dissociation constant from NMR cross-peak movement, average) was 1.6 µM and the Kd (HBHA110–199 [2]; from NMR cross-peak movement, read-out: average KD in the most perturbed region (residues 178–199)) was 1.5 µM. For the same compound, the “average Δδresidue (weighted chemical shift deviation) of HBHA110–199” value (HBHA110–199 [2]; protein-to-sugar molar ratio 1:2, all residues) was 0.035 ppm, the Kd (HBHA110–199 [2]; residue A163, Repeat I, read-out: Dissociation constant from NMR cross-peak movement) was 9.5 µM and the Kd (HBHA110–199 [2]; residue A164, Repeat I, read-out: Dissociation constant from NMR cross-peak movement) was 5.4 µM. The Kd (HBHA110–199 [2]; residue A166, Repeat II, read-out: Dissociation constant from NMR cross-peak movement) was 3.2 µM, the Kd (HBHA110–199 [2]; residue A169, Repeat II, read-out: Dissociation constant from NMR cross-peak movement) was 5.5 µM and the Kd (HBHA110–199 [2]; residue A170, Repeat II, read-out: Dissociation constant from NMR cross-peak movement) was 2.5 µM. It also gave a Kd (HBHA110–199 [2]; residue A172, Repeat III, read-out: Dissociation constant from NMR cross-peak movement) of 2.2 µM, a Kd (HBHA110–199 [2]; residue A175, Repeat III, read-out: Dissociation constant from NMR cross-peak movement) of 2.3 µM and a Kd (HBHA110–199 [2]; residue A176, Repeat III, read-out: Dissociation constant from NMR cross-peak movement) of 1.4 µM. For the same compound, the Kd (HBHA110–199 [2]; residue A178, Repeat IV, read-out: Dissociation constant from NMR cross-peak movement) was 0.8 µM, the Kd (HBHA110–199 [2]; residue A181, Repeat IV, read-out: Dissociation constant from NMR cross-peak movement) was 1.4 µM and the Kd (HBHA110–199 [2]; residue A182, Repeat IV, read-out: Dissociation constant from NMR cross-peak movement) was 1 µM. It also gave a Kd (HBHA110–199 [2]; residue A183, Repeat IV, read-out: Dissociation constant from NMR cross-peak movement) of 0.7 µM, a Kd (HBHA110–199 [2]; residue A186, Repeat IV, read-out: Dissociation constant from NMR cross-peak movement) of 0.8 µM and a Kd (HBHA110–199 [2]; residue A188, Repeat V, read-out: Dissociation constant from NMR cross-peak movement) of 0.8 µM. For the same compound, the Kd (HBHA110–199 [2]; residue A191, Repeat V, read-out: Dissociation constant from NMR cross-peak movement) was 1.5 µM, the Kd (HBHA110–199 [2]; residue A192, Repeat V, read-out: Dissociation constant from NMR cross-peak movement) was 2.1 µM and the Kd (HBHA110–199 [2]; residue A193, Repeat V, read-out: Dissociation constant from NMR cross-peak movement) was 1 µM. For the same compound, the Kd (HBHA110–199 [2]; residue K161, Repeat I, read-out: Dissociation constant from NMR cross-peak movement) was 12.9 µM, the Kd (HBHA110–199 [2]; residue K162, Repeat I, read-out: Dissociation constant from NMR cross-peak movement) was 6.8 µM and the Kd (HBHA110–199 [2]; residue K167, Repeat II, read-out: Dissociation constant from NMR cross-peak movement) was 1.7 µM. For the same compound, the Kd (HBHA110–199 [2]; residue K168, Repeat II, read-out: Dissociation constant from NMR cross-peak movement) was 3.2 µM, the Kd (HBHA110–199 [2]; residue K173, Repeat III, read-out: Dissociation constant from NMR cross-peak movement) was 1.7 µM and the Kd (HBHA110–199 [2]; residue K174, Repeat III, read-out: Dissociation constant from NMR cross-peak movement) was 6.7 µM. For the same compound, the Kd (HBHA110–199 [2]; residue K179, Repeat IV, read-out: Dissociation constant from NMR cross-peak movement) was 1.3 µM, the Kd (HBHA110–199 [2]; residue K190, Repeat V, read-out: Dissociation constant from NMR cross-peak movement) was 1.2 µM and the Kd (HBHA110–199 [2]; residue K194, Repeat V, read-out: Dissociation constant from NMR cross-peak movement) was 1.1 µM. The Kd (HBHA110–199 [2]; residue K195, Repeat V, read-out: Dissociation constant from NMR cross-peak movement) was 2.9 µM, the Kd (HBHA110–199 [2]; residue V196, Repeat V, read-out: Dissociation constant from NMR cross-peak movement) was 2.3 µM and the “changes in CD spectra of HBHA110–199” value (HBHA110–199 [3]) was “no noteworthy changes”.
